Experimental data: patent US12331035B2, “Bicyclic compound and use thereof” (SK BIOPHARMACEUTICALS CO., LTD., priority 2019, dated 2025)

Experiments:
[1] = biological target: T1, PRMT5-MEP50 enzyme complex (Homo sapiens, UniProt O14744); test: In vitro PRMT5 enzyme activity assay (methylation of histone H4 arginine H4R3, ELISA absorbance at 450 nm); format: biochemical; settings: S-adenosylmethionine, histone H4 peptide, 2 hours at room temperature, 8 points 10 μM to 0.128 nM
T1 construct: purchased BPS Bioscience (USA) 51045
T1 sequence (O14744 2-637 limits assumed): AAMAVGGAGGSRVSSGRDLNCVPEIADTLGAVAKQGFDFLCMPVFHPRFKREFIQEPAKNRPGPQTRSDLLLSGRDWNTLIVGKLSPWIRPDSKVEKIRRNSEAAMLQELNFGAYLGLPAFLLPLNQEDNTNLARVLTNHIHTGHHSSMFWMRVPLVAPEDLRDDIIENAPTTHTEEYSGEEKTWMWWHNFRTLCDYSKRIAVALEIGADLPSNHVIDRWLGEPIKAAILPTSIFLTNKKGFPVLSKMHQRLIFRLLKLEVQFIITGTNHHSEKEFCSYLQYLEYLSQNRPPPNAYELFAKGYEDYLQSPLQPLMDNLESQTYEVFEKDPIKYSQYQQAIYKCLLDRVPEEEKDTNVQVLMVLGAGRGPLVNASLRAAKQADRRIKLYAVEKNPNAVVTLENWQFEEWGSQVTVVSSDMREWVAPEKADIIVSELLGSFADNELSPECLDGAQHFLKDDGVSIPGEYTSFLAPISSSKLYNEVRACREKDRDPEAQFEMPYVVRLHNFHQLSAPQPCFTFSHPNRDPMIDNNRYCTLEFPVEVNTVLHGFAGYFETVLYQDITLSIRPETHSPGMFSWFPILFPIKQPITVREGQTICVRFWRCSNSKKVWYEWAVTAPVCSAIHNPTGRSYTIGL
T1 sequence (Q9BQA1 2-342 partner limits assumed): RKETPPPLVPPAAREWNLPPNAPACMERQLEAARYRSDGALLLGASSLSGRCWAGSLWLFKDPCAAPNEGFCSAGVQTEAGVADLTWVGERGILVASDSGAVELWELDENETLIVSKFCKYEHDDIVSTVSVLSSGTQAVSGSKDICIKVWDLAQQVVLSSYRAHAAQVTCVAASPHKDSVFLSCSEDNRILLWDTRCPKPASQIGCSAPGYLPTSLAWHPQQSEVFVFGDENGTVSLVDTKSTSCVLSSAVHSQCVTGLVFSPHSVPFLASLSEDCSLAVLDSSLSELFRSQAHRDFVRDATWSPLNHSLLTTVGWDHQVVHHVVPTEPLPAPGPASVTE
Outline: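 Human PRMT5-MEP50 (5 μg/mL working stock) with 2 μM SAM stock on histone H4 (1-20) peptide-coated plates, compound 8-point 1:5 series from 10 μM, 2 h at room temperature. H4R3 methylation detected by antibody/HRP ELISA, absorbance 450 nm; IC50 calculated.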

[2] = system: SDMA levels in the tumor; test: Test for in vivo target inhibitory activity (SDMA levels in U87MG tumor); settings: U87MG tumor cells implanted subcutaneously in nude mice, oral 25 or 50 mg/kg 1-2 times daily for one week
Protocol: Test for In Vivo Target Inhibitory Activity
After U87MG tumor cells were implanted subcutaneously in nude mice, a PRMT5 inhibitor was administered orally (25 or 50 mg/kg) 1-2 times daily for one week, and then the degree to which SDMA levels in the tumor decreased was measured.
Reagents: Bradford's solution (Catalog No. 500-0006) was purchased from Bio-rad (USA). SDMA antibody (Catalog No. 13222s) was purchased from Cell Signaling Technology (USA). SmD3 antibody (Catalog No. ap12451a) was purchased from Abgent (USA), and secondary antibody (Catalog No. ab6721) and TMB substrate (Catalog No. ab210902) were purchased from Abcam (UK).
Experimental procedure: The tumor tissues transplanted into the mice were excised, the cells were lysed, and then quantified with Bradford's solution. 5-10 μg of protein per sample was diluted with carbonate-bicarbonate buffer and dispensed into a 96-well plate and reacted at room temperature for 2 hours. After washing with phosphate buffered saline (PBST) containing 0.05% Tween-20 3 times, 200 μL of PBST containing 5% bovine serum albumin (BSA-PBST) was added and reacted at room temperature for 2 hours. After washing with PBST 3 times, the SDMA antibody and the SmD3 antibody were diluted in BSA-PBST, and 100 μL of each was dispensed onto the plate and reacted at 4° C. overnight. After washing with PBST 3 times the next day, 100 μL of the secondary antibody diluted in BSA-PBST was added and reacted at room temperature for 1 hour. After washing with PBST 3 times, 100 μL of TMB substrate was added and reacted at room temperature for 10-20 minutes, and 100 μL of 1N sulfuric acid solution was added to terminate the reaction. Then, the absorbance at 450 nm was measured to calculate the degree of SDMA inhibition by the compound. (+++: more than 70%, ++: more than 30% and 70% or less, +: 30% or less)

O=C1c2ccc(N3CCOCC3)cc2CCN1C[C@H](O)CN1CCc2ccccc2C1 [Example 4, 2-[(2R)-3-(3,4-dihydro-1H-isoquinolin-2-yl)-2-hydroxy-propyl]-6-morpholino-3,4-dihydroisoquinoline-1-one]
IC50 [1]: 1 to 100 nM
SDMA inhibition [2]: ++ (++: more than 30% and 70% or less)

C[C@@H]1CN(c2ccc3c(c2)CCN(C[C@H](O)CN2CCc4ccccc4C2)C3=O)C[C@H](C)O1 [Example 14, 2-[(2R)-3-(3,4-dihydro-1H-isoquinolin-2-yl)-2-hydroxy-propyl]-6-[(2R,6S)-2,6-dimethylmorpholin-4-yl]-3,4-dihydroisoquinolin-1-one]
IC50 [1]: 100 to 1000 nM
SDMA inhibition [2]: +++ (+++: more than 70%)

O=CN1CCN(c2ccc3c(c2)CCN(C[C@H](O)CN2CCc4ccccc4C2)C3=O)CC1 [Example 87, 4-[2-[(2R)-3-(3,4-dihydro-1H-isoquinolin-2-yl)-2-hydroxy-propyl]-1-oxo-3,4-dihydroisoquinolin-6-yl]piperazine-1-carbaldehyde]
IC50 [1]: 1 to 100 nM
SDMA inhibition [2]: ++ (++: more than 30% and 70% or less)

CN1CCC(Oc2ccc3c(c2)CCN(C[C@H](O)CN2CCc4ccccc4C2)C3=O)CC1 [Example 135, 2-[(2R)-3-(3,4-dihydro-1H-isoquinolin-2-yl)-2-hydroxy-propyl]-6-[(1-methyl-4-piperidyl)oxy]-3,4-dihydroisoquinolin-1-one]
IC50 [1]: 100 to 1000 nM
SDMA inhibition [2]: +++ (+++: more than 70%)

O=C1c2ccc(C#Cc3ccncc3)cc2CCN1C[C@H](O)CN1CCc2ccccc2C1 [Example 138, 2-[(2R)-3-(3,4-dihydro-1H-isoquinolin-2-yl)-2-hydroxypropyl]-6-[2-(4-pyridyl)ethynyl]-3,4-dihydroisoquinolin-1-one]
IC50 [1]: 100 to 1000 nM

CN1CCCC(Oc2ccc3c(c2)CCN(C[C@H](O)CN2CCc4ccccc4C2)C3=O)C1 (stereo partly drawn) [Example 139, 2-[(2R)-3-(3,4-dihydro-1H-isoquinolin-2-yl)-2-hydroxypropyl]-6-[(1-methyl-3-piperidyl)oxy]-3,4-dihydroisoquinolin-1-one]
IC50 [1]: 1 to 100 nM

O=C1c2ccc(OC3CCCN(CCF)C3)cc2CCN1C[C@H](O)CN1CCc2ccccc2C1 (stereo partly drawn) [Example 140, 2-[(2R)-3-(3,4-dihydro-1H-isoquinolin-2-yl)-2-hydroxypropyl]-6-[[1-(2-fluoroethyl)-3-piperidyl]oxy]-3,4-dihydroisoquinolin-1-one]
IC50 [1]: 100 to 1000 nM

CN(C)CC#Cc1ccc2c(c1)CCN(C[C@H](O)CN1CCc3ccccc3C1)C2=O [Example 141, 2-[(2R)-3-(3,4-dihydro-1H-isoquinolin-2-yl)-2-hydroxypropyl]-6-[3-(dimethylamino)prop-1-ynyl]-3,4-dihydroisoquinolin-1-one]
IC50 [1]: 100 to 1000 nM
